# According to article PMC5640672, “Molecular mechanism of synergy between the antimicrobial peptides PGLa and magainin 2” (Scientific Reports, 2017):
# No end group written: not given here.
# Tests used:
# [1] = Fluorescence ANTS/DPX vesicle leakage assay in POPE/POPG/TOCL (72:23:5); details: POPE/POPG/TOCL (72:23:5) 100 nm vesicles, P/L ≈ 1:30, mixtures 1:1, 10 mM HEPES pH 7.5, 155 mM NaCl, 30 °C, 600 s, % of Triton-X-100 leakage, mean of n = 3
# Source text: It could be argued that POPC/POPG (3:1) is not the most appropriate model system to describe a bacterial membrane, which rarely contains PC lipids. We therefore also performed leakage in another lipid system, POPE/POPG/TOCL (72:23:5), which is a good model of E. coli membranes[45],[69],[70]. […] For all of the other mutants discussed below, leakage was also studied both in POPC/POPG as well as POPE/POPG/TOCL, but since the results (synergy or no synergy) were in all cases the same, the latter data will not be presented in the text. All leakage data in POPE/POPG/TOCL (72:23:5) for charge mutants are summarized in Supplementary Table S4.
# (§1) Leakage of small unilamellar vesicles induced by the peptides was studied using a standard fluorescence assay.
# (§2) The appropriate lipids for each experiment were dissolved in CHCl3, together with 0.02 mol-% Rhodamine-PE (Rh-PE). […] This stock suspension was subjected to 10 freeze-thaw cycles and then frozen. Appropriate aliquots of the stock lipid suspension were unfrozen each day and extruded (41 times) through polycarbonate membranes with 100 nm pore size, and stored at room temperature overnight. The fluorophore and quencher outside the vesicles were removed by size exclusion chromatography using spin-columns (Pierce centrifuge column, 2 ml, Life Technologies GmbH, Darmstadt, Germany) filled with Sephacryl 100-HR (2 min, 1500 × g). For elution, a 10 mM HEPES buffer (pH 7.5) was used, containing 155 mM NaCl to balance the osmolarity. After extrusion and removal of the external dye and quencher, the lipid concentration usually decreases. Therefore, before each set of measurements a rhodamine spectrum was recorded to determine the actual concentration of lipids, which was referenced to a spectrum taken of vesicles made by sonification without any subsequent treatment.
# (§3) Fluorescence experiments were performed on a FluoroMax2 spectrofluorimeter (HORIBA Jobin Yvon, Unterhaching, Germany) equipped with a thermostated sample holder and magnetic stirrer, using an excitation wavelength of 355 nm, an emission wavelength of 508 nm, and slit widths of 5 nm. The peptide solutions were placed in elution buffer in a 1 cm standard cuvette at 30 °C. 100 s after the start of the measurement lipid vesicles were added, and the intensity of the fluorescence at 508 nm was recorded. The leakage was measured during 600 s after addition of vesicles, and the measurement was terminated after addition of Triton-X-100 (0.25% v/v), which dissolved the vesicles, and yielded 100% leakage. To determine the background signal of the vesicles themselves, several blanks were recorded per measurement set. From the leakage values of the peptides alone and of the mixture of two peptides a synergy factor SF was calculated:3 SF=L(A+B)/[L(A)+L(B)] Here, L(A) is the leakage found with peptide A alone, L(B) is the leakage found with peptide B alone, and L(A + B) is the leakage found with the mixture of peptides A and B. In all cases the P/L was the same for both peptides, alone and in the mixture, so that in the mixture the total P/L was twice that of the individual peptide measurements. […] Measurements were repeated three times and average values and standard deviations calculated for the leakage and the synergy factors. An average SF ≥ 2 was taken to indicate synergy.
# [2] = Fluorescence ANTS/DPX vesicle leakage assay in POPC/POPG (3:1); details: for Leakage synergy in combination with MAG2-E19K / Leakage synergy in combination with MAG2-E19K-amide: POPC/POPG (3:1) vesicles, result in words; for Leakage, mean value: ANTS/DPX, POPC/POPG (3:1) 100 nm vesicles, P/L about 1:160 per peptide, mixtures 1:1, 10 mM HEPES pH 7.5, 155 mM NaCl, 30 °C, 600 s, % of Triton-X-100 leakage, fluorescence, mean of n = 3
# Experimental: The synergy was also investigated by a fluorescence ANTS/DPX leakage assay[24],[27],[30]. As described in the Methods section, leakage from POPC/POPG (3:1) vesicles was measured for 10 minutes after the addition of vesicles to a peptide solution. Leakage is expressed as percentage of the full leakage, which was obtained after addition of detergent. A synergy factor was defined to describe the enhancement of leakage of the mixture compared to the sum of the extent of leakage for each component. […] In general a synergy factor above 2 indicated synergy. […] In the leakage assay, this pore formation can be studied under more controlled conditions. Here we use two lipid compositions for the vesicles, which are mimicking bacterial membranes.
# as §1, §2
# as §3, with “SF=L(A+B)/[L(A)+L(B)]” for “SF=L(A+B)/[L(A)+L(B)] Here, L(A) is the leakage found with peptide A alone, L(B) is the leakage found with peptide B alone, and L(A + B) is the leakage found with the mixture of peptides A and B. In all cases the P/L was the same for both peptides, alone and in the mixture, so that in the mixture the total P/L was twice that of the individual peptide measurements.”
# [3] = Table S4 series (charge mutants)
# [4] = Table S3 series (charge mutants)
# [5] = Table S11 series (MSI-to-PGLa mutants)
# [6] = Table S8 series (PGLa-to-MSI mutants)
# [7] = Table S7 series (PGLa-to-MSI mutants)
# [8] = Table S12 series (MSI-to-PGLa mutants)
substance,measurement,setting,value
"GMASKAGAIAGKIAKVALEAL-NH2 [PGLa-K19E, PGLa charge mutant K19E]","Leakage, mean value",[1]; [3],1.7%
same,Leakage synergy in combination with MAG2-E19K,[2],did not show synergy
same,Leakage synergy in combination with MAG2-E19K-amide,[2],did not show synergy
same,"Leakage, mean value",[2]; [4],3.0%
"GMASKAGAIAGEIAKVALKAL-NH2 [PGLa-K12E, PGLa charge mutant K12E]","Leakage, mean value",[1]; [3],2.3%
same,"Leakage, mean value",[2]; [4],3.1%
"KIAGKIGAIAGKIAKIAGKIA-NH2 (also: 15N-labeled Ala10) [MtP-K8A-A7G, MSI-103 double mutant K8A, A7G]","Leakage, mean value",[2]; [5],1.3%
"GIGKFLHSAKKFGKAFVGQIMNS-OH [MAG2-E19Q, MAG2 charge mutant E19Q]","Leakage, mean value",[1]; [3],1.1%
same,"Leakage, mean value",[2]; [4],5.9%
"KIAGKIAKIAGKIAKIAGKIA-NH2 [MSI-103, designer-made AMP ([KIAGKIA]3-NH2) derived from PGLa, reference compound]","Leakage, mean value",[1]; [6],5.6%
same,"Leakage, mean value",[2]; [7],2.0%
"KIAGKIAAIAGKIAKIAGKIA-NH2 [MtP-K8A, MSI-103 to PGLa single mutant K8A]","Leakage, mean value",[1]; [8],1.8%
same,"Leakage, mean value",[2]; [5],1.7%
"GMASKAAAIAGKIGKVALKAL-NH2 (also: 15N-labeled Ala10) [PGLa-GS1, PGLa glycine-shift mutant with GxxG motif]","Leakage, mean value",[1]; Table S16 series (Gly mutants),2.7%
same,"Leakage, mean value",[2]; Table S15 series (Gly mutants),1.9%
"GMASKAIAG A IKGAKVALKAL-NH2 [PGLa-GS2, PGLa glycine-shift mutant, GxxxG on opposite helix face]","Leakage, mean value",[1]; Table S16 series (Gly mutants),2.2%
same,"Leakage, mean value",[2]; Table S15 series (Gly mutants),2.0%
"GMASKAGAIAGKIAKVALKAL-NH2 [PGLa-WT, PGLa wild type antimicrobial peptide from Xenopus laevis skin, 15N-labeled at Ala10, reference compound]","Leakage, mean value",[1]; [3],2.2%
same,"Leakage, mean value",[1]; [6],2.2%
same,"Leakage, mean value",[1]; [8],2.1%
same,"Leakage, mean value",[1]; Table S16 series (Gly mutants),2.3%
same,"Leakage, mean value",[2]; [4],2.3%
same,"Leakage, mean value",[2]; [7],2.7%
same,"Leakage, mean value",[2]; [5],2.3%
same,"Leakage, mean value",[2]; Table S15 series (Gly mutants),2.2%
"KIAGKAAKIAGKIAKIAGKIA-NH2 [MtP-I6A, MSI-103 to PGLa single mutant I6A]","Leakage, mean value",[1]; [8],4.8%
same,"Leakage, mean value",[2]; [5],1.6%
"KIAGKAGKIAGKIAKIAGKIA-NH2 (also: 15N-labeled Ala10) [MtP-I6A-A7G, MSI-103 double mutant I6A, A7G]","Leakage, mean value",[2]; [5],0.8%
"GMASKAGAIAGKIAEVALKAL-NH2 [PGLa-K15E, PGLa charge mutant K15E]","Leakage, mean value",[1]; [3],2.5%
same,Leakage synergy in combination with MAG2-E19K,[2],did not show synergy
same,Leakage synergy in combination with MAG2-E19K-amide,[2],did not show synergy
same,"Leakage, mean value",[2]; [4],2.9%
"KIASKIGKIAGKIAKIAGKIA-NH2 (also: 15N-labeled Ala10) [MtP-G4S-A7G, MSI-103 double mutant G4S, A7G]","Leakage, mean value",[2]; [5],1.4%
"GIGKFLHSAKKFGKAFVGEIMNS-OH [MAG2-WT, magainin 2, wild type antimicrobial peptide from Xenopus laevis skin, reference compound]","Leakage, mean value",[1]; [3],1.1%
same,"Leakage, mean value",[1]; [6],1.2%
same,"Leakage, mean value",[1]; [8],1.0%
same,"Leakage, mean value",[1]; Table S16 series (Gly mutants),1.1%
same,"Leakage, mean value",[2]; [4],3.1%
same,"Leakage, mean value",[2]; [7],3.2%
same,"Leakage, mean value",[2]; [5],3.2%
same,"Leakage, mean value",[2]; Table S15 series (Gly mutants),3.2%
"KIAGKAGAIAGKIAKIAGKIA-NH2 [MtP-a3, MSI-103 triple mutant I6A, A7G, K8A]","Leakage, mean value",[1]; [8],0.9%
same,"Leakage, mean value",[2]; [5],0.9%
"GIGKFLHSAKKFGKAFVGEIMNS-NH2 [MAG2-amide, MAG2 with amidated C-terminus]","Leakage, mean value",[1]; [3],0.8%
same,"Leakage, mean value",[2]; [4],3.7%
"KIAGKIGKIAGKIAKIALKIA-NH2 (also: 15N-labeled Ala10) [MtP-A7G-G18L, MSI-103 double mutant A7G, G18L]","Leakage, mean value",[2]; [5],4.9%
"KIAGKAGAIAGKIAKIALKIA-NH2 (also: 15N-labeled Ala10) [MtP-a4, MSI-103 mutant with MtP-A3 mutations plus G18L]","Leakage, mean value",[1]; [8],2.6%
same,"Leakage, mean value",[2]; [5],2.5%
"GMASEAGAIAGKIAKVALKAL-NH2 [PGLa-K5E, PGLa charge mutant K5E]","Leakage, mean value",[1]; [3],2.2%
same,"Leakage, mean value",[2]; [4],3.5%
"GMASKAAAIAGKIAKVALKAL-NH2 (also: 15N-labeled Ala10) [PtM-G7A, PGLa single mutant G7A]","Leakage, mean value",[1]; [6],3.7%
same,"Leakage, mean value",[2]; [7],2.1%
"GMASKIAKIAGKIAKVALKAL-NH2 [PtM-a3, PGLa to MSI-103 mutant, three amino acids converted]","Leakage, mean value",[1]; [6],9.1%
same,"Leakage, mean value",[2]; [7],3.3%
"GMASKAGAIA IKIAKVALKAL-NH2 [PGLa-G11I, PGLa glycine mutant G11I]","Leakage, mean value",[1]; Table S16 series (Gly mutants),11.4%
same,"Leakage, mean value",[2]; Table S15 series (Gly mutants),11.0%
"KIAGKIAKIAGKIAKVALKAL-NH2 [PtM-a1, PGLa to MSI-103 mutant, segment A replaced]","Leakage, mean value",[1]; [6],18.6%
same,"Leakage, mean value",[2]; [7],4.7%
